*1 amine or outer side, *2 acyl side, *3 side chain or, on linkers, in order; H or OH if unused. Where a SMILES comes first, the peptide text is derived from it. Side-chain parts run from the residue outwards. The star is where a group is joined. C18 diacid = O=C(O)CCCCCCCCCCCCCCCCC(=O)*; γGlu = O=C(O)[C@H](CCC(=O)[*:2])N[*:1]; Isovaleryl = CC(C)CC(=O)*; Ahx = NCCCCCC(=O)O
How the values were obtained:
[1] = biological target: T1, Human Neuropeptide Y2 Receptor (Homo sapiens, UniProt P49146); experiment: Radioligand binding competition assay (RLB); settings: Table 3, 125I-PYY(1-36) competition; read-out: Ki
T1 construct: purchased CHEMICON HTS066M
T1 sequence (P49146 1-381): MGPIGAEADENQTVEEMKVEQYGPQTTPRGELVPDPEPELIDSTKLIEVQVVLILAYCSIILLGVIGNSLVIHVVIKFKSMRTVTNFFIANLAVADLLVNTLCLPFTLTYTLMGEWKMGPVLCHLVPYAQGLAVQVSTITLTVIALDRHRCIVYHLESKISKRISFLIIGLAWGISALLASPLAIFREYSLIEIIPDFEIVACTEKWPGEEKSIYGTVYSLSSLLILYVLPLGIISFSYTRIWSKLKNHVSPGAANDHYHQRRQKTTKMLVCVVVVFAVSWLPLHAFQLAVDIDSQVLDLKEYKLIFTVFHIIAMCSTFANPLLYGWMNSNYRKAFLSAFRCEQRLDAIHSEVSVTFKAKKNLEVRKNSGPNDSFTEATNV
Procedure, shortened: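 Filtration binding assay on human Y2 receptor membrane preparation, 0.5 μg protein per well, in 50 mM HEPES pH 7.4 containing 5 mM MgCl2, 1 mM CaCl2 and 0.2% ovalbumin. Plates shake 2 h at room temperature before harvest and scintillation counting.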

Solubility determination = settings: for Sol6: pH 6; for Sol7: pH 7
Procedure, shortened: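 First, TFA-salt peptide was added to 0.1 M sodium diphosphate (pH 6.4 or 7.0) to 10 mg/ml and shaken 2 h at room temperature. Next, insoluble material was filtered off. Finally, filtrate and control, each 1 mg/ml in 50% acetonitrile, were compared by reversed-phase chromatography.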

Row | Structure (SMILES) | Ki [1] | Sol6 (Solubility determination) | Sol7 (Solubility determination)
1 | CC(C)CC(=O)N[C@@H](C)C(=O)N1CCC[C@H]1C(=O)N[C@@H](CCC(=O)O)C(=O)N[C@@H](CCCCNC(=O)CCCCCNC(=O)CC[C@H](NC(=O)CCCCCCCCCCCCCCCCC(=O)O)C(=O)O)C(=O)N1CCC[C@H]1C(=O)N[C@@H](CCC(=O)O)C(=O)N[C@@H](CCC(=O)O)C(=O)N[C@@H](CC(=O)O)C(=O)N[C@@H](C)C(=O)N[C@H](C(=O)N[C@@H](CCC(=O)O)C(=O)N[C@@H](CCC(=O)O)C(=O)N[C@@H](CCC(=O)O)C(=O)N[C@@H](CC(C)C)C(=O)N[C@@H](CCC(N)=O)C(=O)N[C@@H](CCCNC(=N)N)C(=O)N[C@@H](Cc1ccc(O)cc1)C(=O)N[C@@H](Cc1ccc(O)cc1)C(=O)N[C@H](C(=O)N[C@@H](CO)C(=O)N[C@@H](CC(C)C)C(=O)N[C@@H](CCCNC(=N)N)C(=O)N[C@@H](Cc1c[nH]cn1)C(=O)N[C@@H](Cc1ccc(O)cc1)C(=O)N[C@@H](Cc1ccc(O)cc1)C(=O)N[C@@H](CC(N)=O)C(=O)N[C@@H](Cc1c[nH]c2ccccc12)C(=O)N[C@@H](CC(C)C)C(=O)N[C@H](C(=O)N[C@@H](CCCNC(=N)N)C(=O)N[C@@H](CCC(N)=O)C(=O)N[C@@H](CCCNC(=N)N)C(=O)N[C@@H](Cc1ccc(O)cc1)C(N)=O)[C@@H](C)O)C(C)C)[C@@H](C)O [Compound 19, N{alpha-4}-(3-methylbutanoyl)-N{epsilon-7}-(6-[(4S)-4-carboxy-4-(17-carboxyheptadecanamido)butanamido]hexanoyl)[4A,7K,9E,13T,14E,18Q,22V,28Y,30W,31L]-hPYY(4-36)] | 9.63 nM | 10.0 mg/mL | 9.2 mg/mL
2 | CC[C@H](C)[C@H](NC(=O)[C@H](CCC(=O)O)NC(=O)[C@H](CCC(=O)O)NC(=O)[C@@H]1CCCN1C(=O)[C@@H](NC(=O)[C@H](C)NC(=O)[C@H](CC(=O)O)NC(=O)[C@H](CCC(=O)O)NC(=O)[C@H](CCC(=O)O)NC(=O)[C@@H]1CCCN1C(=O)[C@H](CCCCNC(=O)CCCCCNC(=O)CC[C@H](NC(=O)CCCCCCCCCCCCCCCCC(=O)O)C(=O)O)NC(=O)[C@H](CCC(=O)O)NC(=O)[C@@H]1CCCN1C(=O)[C@H](C)NC(=O)CC(C)C)[C@@H](C)O)C(=O)N[C@@H](CCC(N)=O)C(=O)N[C@@H](CCCNC(=N)N)C(=O)N[C@@H](Cc1ccc(O)cc1)C(=O)N[C@@H](Cc1ccc(O)cc1)C(=O)N[C@@H](C)C(=O)N[C@@H](CO)C(=O)N[C@@H](CC(C)C)C(=O)N[C@@H](CCCNC(=N)N)C(=O)N[C@@H](Cc1c[nH]cn1)C(=O)N[C@@H](Cc1ccc(O)cc1)C(=O)N[C@@H](Cc1ccc(O)cc1)C(=O)N[C@@H](CC(N)=O)C(=O)N[C@@H](Cc1c[nH]c2ccccc12)C(=O)N[C@@H](CC(C)C)C(=O)N[C@H](C(=O)N[C@@H](CCCNC(=N)N)C(=O)N[C@@H](CCC(N)=O)C(=O)N[C@@H](CCCNC(=N)N)C(=O)N[C@@H](Cc1ccc(O)cc1)C(N)=O)[C@@H](C)O [Compound 86, N{alpha-4}-(3-methylbutanoyl)-N{epsilon-7}-(6-[(4S)-4-carboxy-4-(17-carboxyheptadecanamido)butanamido]hexanoyl)-[4A,7K,9E,13T,17I,18Q,28Y,30W,31L]-hPYY(4-36)] | 4.33 nM | >10.0 mg/mL | >10.0 mg/mL
3 | CC(C)CC(=O)N[C@@H](C)C(=O)N1CCC[C@H]1C(=O)N[C@@H](C)C(=O)N[C@@H](CCCCNC(=O)CCCCCNC(=O)CC[C@H](NC(=O)CCCCCCCCCCCCCCCCC(=O)O)C(=O)O)C(=O)N1CCC[C@H]1C(=O)N[C@@H](CCC(=O)O)C(=O)N[C@@H](CCC(=O)O)C(=O)N[C@@H](CC(=O)O)C(=O)N[C@@H](C)C(=O)N[C@@H](CO)C(=O)N1CCC[C@H]1C(=O)N[C@@H](CCC(=O)O)C(=O)N[C@@H](CCC(=O)O)C(=O)N[C@@H](CC(C)C)C(=O)N[C@@H](CCC(N)=O)C(=O)N[C@@H](CCCNC(=N)N)C(=O)N[C@@H](Cc1ccc(O)cc1)C(=O)N[C@@H](Cc1ccc(O)cc1)C(=O)N[C@H](C(=O)N[C@@H](CO)C(=O)N[C@@H](CC(C)C)C(=O)N[C@@H](CCCNC(=N)N)C(=O)N[C@@H](Cc1c[nH]cn1)C(=O)N[C@@H](CCC(N)=O)C(=O)N[C@@H](Cc1ccc(O)cc1)C(=O)N[C@@H](CC(N)=O)C(=O)N[C@@H](Cc1c[nH]c2ccccc12)C(=O)N[C@@H](CC(C)C)C(=O)N[C@H](C(=O)N[C@@H](CCCNC(=N)N)C(=O)N[C@@H](CCC(N)=O)C(=O)N[C@@H](CCCNC(=N)N)C(=O)N[C@@H](Cc1ccc(O)cc1)C(N)=O)[C@@H](C)O)C(C)C [Compound 32, N{alpha-4}-(3-methylbutanoyl)-N{epsilon-7}-(6-[(4S)-4-carboxy-4-(17-carboxyheptadecanamido)butanamido]hexanoyl)[4A,6A,7K,9E,18Q,22V,27Q,28Y,30W,31L]-hPYY(4-36)] | 13.6 nM | 8.2 mg/mL | 9.3 mg/mL

Continued, values first:

Row | Ki [1] | Sol6 (Solubility determination) | Sol7 (Solubility determination) | Structure (SMILES)
4 | 3.07 nM | 9.7 mg/mL | >10.0 mg/mL | CC[C@H](C)[C@H](NC(=O)[C@H](CCC(=O)O)NC(=O)[C@H](CCC(=O)O)NC(=O)[C@@H]1CCCN1C(=O)[C@H](CCC(=O)O)NC(=O)[C@H](C)NC(=O)[C@H](C)NC(=O)[C@H](C)NC(=O)[C@H](CCC(=O)O)NC(=O)[C@@H]1CCCN1C(=O)[C@H](CCCCNC(=O)CCCCCNC(=O)CC[C@H](NC(=O)CCCCCCCCCCCCCCCCC(=O)O)C(=O)O)NC(=O)[C@H](CCC(=O)O)NC(=O)[C@@H]1CCCN1C(=O)[C@H](C)NC(=O)CC(C)C)C(=O)N[C@@H](CCC(N)=O)C(=O)N[C@@H](CCCNC(=N)N)C(=O)N[C@@H](Cc1ccc(O)cc1)C(=O)N[C@@H](Cc1ccc(O)cc1)C(=O)N[C@H](C(=O)N[C@@H](CO)C(=O)N[C@@H](CC(C)C)C(=O)N[C@@H](CCCNC(=N)N)C(=O)N[C@@H](Cc1c[nH]cn1)C(=O)N[C@@H](Cc1ccc(O)cc1)C(=O)N[C@@H](Cc1ccc(O)cc1)C(=O)N[C@@H](CC(N)=O)C(=O)N[C@@H](Cc1c[nH]c2ccccc12)C(=O)N[C@@H](CC(C)C)C(=O)N[C@H](C(=O)N[C@@H](CCCNC(=N)N)C(=O)N[C@@H](CCC(N)=O)C(=O)N[C@@H](CCCNC(=N)N)C(=O)N[C@@H](Cc1ccc(O)cc1)C(N)=O)[C@@H](C)O)C(C)C [Compound 124, N{alpha-4}-(3-methylbutanoyl)-N{epsilon-7}-(6-[(4S)-4-carboxy-4-(17-carboxyheptadecanamido)butanamido]hexanoyl)-[4A,7K,9E,10A,11A,13E,17I,18Q,22V,28Y,30W,31L]-hPYY(4-36)] (Isovaleryl-APEK([Ahx-γGlu-C18 diacid])PEAAAEPEEIQRYYVSLRHYYNWLTRQRY-NH2)
5 | 2.14 nM | 0.0 mg/mL | 0.0 mg/mL | CC[C@H](C)[C@H](NC(=O)[C@H](CCC(=O)O)NC(=O)[C@H](CCC(=O)O)NC(=O)[C@@H]1CCCN1C(=O)[C@H](CCC(=O)O)NC(=O)[C@H](C)NC(=O)[C@H](C)NC(=O)[C@H](C)NC(=O)[C@H](CCC(=O)O)NC(=O)[C@@H]1CCCN1C(=O)[C@H](CCCCNC(=O)CCCCCNC(=O)CC[C@H](NC(=O)CCCCCCCCCCCCCCCCC(=O)O)C(=O)O)NC(=O)[C@H](C)NC(=O)[C@@H]1CCCN1C(=O)[C@H](C)NC(=O)CC(C)C)C(=O)N[C@@H](CCC(N)=O)C(=O)N[C@@H](CCCNC(=N)N)C(=O)N[C@@H](Cc1ccc(O)cc1)C(=O)N[C@@H](Cc1ccc(O)cc1)C(=O)N[C@H](C(=O)N[C@@H](CO)C(=O)N[C@@H](CC(C)C)C(=O)N[C@@H](CCCNC(=N)N)C(=O)N[C@@H](Cc1c[nH]cn1)C(=O)N[C@@H](Cc1ccc(O)cc1)C(=O)N[C@@H](Cc1ccc(O)cc1)C(=O)N[C@@H](CC(N)=O)C(=O)N[C@@H](Cc1c[nH]c2ccccc12)C(=O)N[C@@H](CC(C)C)C(=O)N[C@H](C(=O)N[C@@H](CCCNC(=N)N)C(=O)N[C@@H](CCC(N)=O)C(=O)N[C@@H](CCCNC(=N)N)C(=O)N[C@@H](Cc1ccc(O)cc1)C(N)=O)[C@@H](C)O)C(C)C [Compound 111, N{alpha-4}-(3-methylbutanoyl)-N{epsilon-7}-(6-[(4S)-4-carboxy-4-(17-carboxyheptadecanamido)butanamido]hexanoyl)-[4A,6A,7K,9E,10A,11A,13E,17I,18Q,22V,28Y,30W,31L]-hPYY(4-36)] (Isovaleryl-APAK([Ahx-γGlu-C18 diacid])PEAAAEPEEIQRYYVSLRHYYNWLTRQRY-NH2)

From patent US12391737B2, “Soluble NPY2 receptor agonists” (Boehringer Ingelheim International GmbH, priority 2020, dated 2025)
